Like-named read-outs stand apart in the source and are kept apart here.
Key:
[1] = target: rI-FABP (SEQ ID NO: 3) variant L2P14 F7, 18G 31M 72A (Rattus norvegicus, UniProt P02693, G32M/L73A/M19G); assay: bilirubin binding to L2P14F7 probe; conditions: Table 6, acrylodan
Description: (§1) Also described are analytical/mathematical methods for calibrating and using the bilirubin probes. Bilirubin probes are calibrated to determine their binding affinity for bilirubin (dissociation constant Kd) under conditions, such as temperature, pH and solution composition, that correspond to samples in which it is desired to know the unbound bilirubin concentration. Binding isotherms are performed in aqueous buffer by measuring the change in fluorescence of the bilirubin probes in response to increasing bilirubin concentrations (“titration data”). The set of fluorescence responses at each bilirubin concentration are fitted with an appropriate equation (“calibration equation”) that correctly describes the fluorescence response as a function of the bilirubin concentration, the probe concentration, specific spectroscopic characteristics, and the Kd.

[2] = target: T1, rI-FABP (SEQ ID NO: 3) variant L2P14F7 MGI KR14 K27C, MGI - KR14 - 18G 27C 31M 72A (Rattus norvegicus, UniProt P02693, A2G/G32M/INS2I/K101R/K126R/K130R/K131R/K17R/K21R/K28C/K30R/K38R/K47R/K51R/K89R/K8R/K93R/K95R/L73A/M19G); assay: bilirubin binding to L2P14F7 MGI KR14 K27C probe; conditions: Table 5, acrylodan
T1 construct: made in house
T1 sequence (P02693 with tags, fused parts or gaps with the stated changes): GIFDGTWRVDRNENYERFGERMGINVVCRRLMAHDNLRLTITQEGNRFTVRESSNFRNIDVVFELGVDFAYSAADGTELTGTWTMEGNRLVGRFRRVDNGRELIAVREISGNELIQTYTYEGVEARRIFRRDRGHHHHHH
Description: as §1

[3] = target: T2, rI-FABP (SEQ ID NO: 3) variant L10P9 E6, 14T 18L 73M 117C 72A (Rattus norvegicus, UniProt P02693, A74M/L73A/M19L/Y118C/Y15T); assay: bilirubin binding to L10P9E6 probe; conditions: Table 5, acrylodan
T2 construct: made in house
T2 sequence (P02693 with tags, fused parts or gaps Y15T/M19L/L73A/A74M/Y118C): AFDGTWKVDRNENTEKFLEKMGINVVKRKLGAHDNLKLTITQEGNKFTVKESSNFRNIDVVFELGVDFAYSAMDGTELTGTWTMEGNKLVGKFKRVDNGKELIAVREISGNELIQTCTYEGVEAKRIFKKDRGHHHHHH
Description: as §1

[4] = target: T3, rI-FABP (SEQ ID NO: 3) variant L24P19C7-K27C, 14R 18L 27C 38V 60R 73F 106C 115R 117D (Rattus norvegicus, UniProt P02693, A74F/K28C/L39V/L73A/M19L/Q116R/R107C/V61R/Y118D/Y15R); assay: bilirubin binding to L24P19C7-K27C probe; conditions: Table 5, acrylodan
T3 construct: made in house
T3 sequence (P02693 with tags, fused parts or gaps Y15R/M19L/K28C/L39V/V61R/L73A/A74F/R107C/Q116R/Y118D): as the sequence (P02693 with tags, fused parts or gaps Y15T/M19L/L73A/A74M/Y118C) above, with T14R, K27C, L38V, V60R, M73F, R106C, Q115R, C117D counted along it
Description: as §1

[5] = target: T4, rI-FABP (SEQ ID NO: 3) variant L24P19 C7 K27K 22C, 14R 18L 22C 38V 60R 73F 106C 115R 117D (Rattus norvegicus, UniProt P02693, A74F/G23C/L39V/L73A/M19L/Q116R/R107C/V61R/Y118D/Y15R); assay: bilirubin binding to L24P19C7 22C probe; conditions: Table 5, acrylodan
T4 construct: made in house
T4 sequence (P02693 with tags, fused parts or gaps Y15R/M19L/G23C/L39V/V61R/L73A/A74F/R107C/Q116R/Y118D): as the sequence (P02693 with tags, fused parts or gaps Y15T/M19L/L73A/A74M/Y118C) above, with T14R, G22C, L38V, V60R, M73F, R106C, Q115R, C117D counted along it
Description: as §1
(§2) . […] The optimal probe performance was obtained with cysteine at positions 25 or 26.

[6] = target: T5, rI-FABP (SEQ ID NO: 3) variant L24P19 C7 K27K 24C, 14R 18L 24C 38V 60R 73F 106C 115R 117D (Rattus norvegicus, UniProt P02693, A74F/L39V/L73A/M19L/N25C/Q116R/R107C/V61R/Y118D/Y15R); assay: bilirubin binding to L24P19C7 24C probe; conditions: Table 5, acrylodan
T5 construct: made in house
T5 sequence (P02693 with tags, fused parts or gaps Y15R/M19L/N25C/L39V/V61R/L73A/A74F/R107C/Q116R/Y118D): as the sequence (P02693 with tags, fused parts or gaps Y15T/M19L/L73A/A74M/Y118C) above, with T14R, N24C, L38V, V60R, M73F, R106C, Q115R, C117D counted along it
Description: as §1, §2

[7] = target: T6, rI-FABP (SEQ ID NO: 3) variant BL22P1 B11 - 24C, MGI - KR14 - 14R 18L 24C 27A 38V 60R 73F 106L 115R 117D (Rattus norvegicus, UniProt P02693, A74F/K101R/K126R/K17R/K21R/K28A/K30R/K38R/K47R/K51R/K89R/K8R/K93R/K95R/L39V/L73A/M19L/N25C/Q116R/R107L/V61R/Y118D/Y15R); assay type: binding; conditions: Table 5, Alexa Fluor 680 C2-maleimide
T6 construct: 6xHis (C); made in house
T6 sequence (P02693 with tags, fused parts or gaps with the stated changes): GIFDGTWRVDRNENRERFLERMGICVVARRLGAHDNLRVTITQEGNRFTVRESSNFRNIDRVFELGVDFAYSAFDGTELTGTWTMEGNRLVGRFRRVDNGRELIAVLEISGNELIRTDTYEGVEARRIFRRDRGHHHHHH
Description: as §1

[8] = target: T7, rI-FABP (SEQ ID NO: 3) variant BL22P1 B11 - 26C, MGI - KR14 - Y14R M18L V26C K27A L38V V60R A73F R106L Q115R Y117D (Rattus norvegicus, UniProt P02693, A74F/K101R/K126R/K17R/K21R/K28A/K30R/K38R/K47R/K51R/K89R/K8R/K93R/K95R/L39V/L73A/M19L/Q116R/R107L/V27C/V61R/Y118D/Y15R); assay type: binding; conditions: Table 5, Alexa Fluor 680 C2-maleimide
T7 construct: 6xHis (C); made in house
T7 sequence (P02693 with tags, fused parts or gaps with the stated changes): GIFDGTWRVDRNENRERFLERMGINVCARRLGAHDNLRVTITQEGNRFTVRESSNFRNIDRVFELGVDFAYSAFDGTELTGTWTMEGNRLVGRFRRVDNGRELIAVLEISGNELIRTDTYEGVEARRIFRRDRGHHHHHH
Description: as §1

[9] = target: T8, rI-FABP (SEQ ID NO: 3) variant BL22P1 B11 - 27C, MGI - KR14 - Y14R M18L K27C L38V V60R A73F R106L Q115R Y117D (Rattus norvegicus, UniProt P02693, A74F/K101R/K126R/K17R/K21R/K28C/K30R/K38R/K47R/K51R/K89R/K8R/K93R/K95R/L39V/L73A/M19L/Q116R/R107L/V61R/Y118D/Y15R); assay type: binding
T8 construct: 6xHis (C); made in house
T8 sequence (P02693 with tags, fused parts or gaps with the stated changes): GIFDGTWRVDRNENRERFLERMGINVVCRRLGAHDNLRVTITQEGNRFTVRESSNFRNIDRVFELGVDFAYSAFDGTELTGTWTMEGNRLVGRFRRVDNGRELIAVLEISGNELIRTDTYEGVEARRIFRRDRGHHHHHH
Description: as §1

[10] = target: T9, rI-FABP (SEQ ID NO: 3) variant BL22P1 B11 - 29C, MGI - KR14 - 14R 18L 27A 29C 38V 60R 73F 106L 115R 117D (Rattus norvegicus, UniProt P02693, A74F/K101R/K126R/K17R/K21R/K28A/K30C/K38R/K47R/K51R/K89R/K8R/K93R/K95R/L39V/L73A/M19L/Q116R/R107L/V61R/Y118D/Y15R); assay type: binding; conditions: Table 5, Alexa Fluor 680 C2-maleimide
T9 construct: 6xHis (C); made in house
T9 sequence (P02693 with tags, fused parts or gaps with the stated changes): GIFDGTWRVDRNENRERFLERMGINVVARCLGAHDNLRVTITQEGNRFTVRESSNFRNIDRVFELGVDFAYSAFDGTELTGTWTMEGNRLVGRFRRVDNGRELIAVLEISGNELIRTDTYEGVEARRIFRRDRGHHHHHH
Description: as §1

[11] = target: T10, rI-FABP (SEQ ID NO: 3) variant BL22P1 B11 - 33C, MGI - KR14 - 14R 18L 27A 33C 38V 60R 73F 106L 115R 117D (Rattus norvegicus, UniProt P02693, A74F/H34C/K101R/K126R/K17R/K21R/K28A/K30R/K38R/K47R/K51R/K89R/K8R/K93R/K95R/L39V/L73A/M19L/Q116R/R107L/V61R/Y118D/Y15R); assay type: binding
T10 construct: 6xHis (C); made in house
T10 sequence (P02693 with tags, fused parts or gaps with the stated changes): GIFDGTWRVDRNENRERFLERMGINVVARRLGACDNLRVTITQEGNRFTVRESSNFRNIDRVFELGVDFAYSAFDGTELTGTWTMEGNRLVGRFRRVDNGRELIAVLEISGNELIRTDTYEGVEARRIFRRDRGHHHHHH
Description: as §1

[12] = target: T11, rI-FABP (SEQ ID NO: 3) variant BL22P1 B11 - 54C, MGI - KR14 - 14R 18L 27A 38V 54C 60R 73F 106L 115R 117D (Rattus norvegicus, UniProt P02693, A74F/K101R/K126R/K17R/K21R/K28A/K30R/K38R/K47R/K51R/K89R/K8R/K93R/K95R/L39V/L73A/M19L/N55C/Q116R/R107L/V61R/Y118D/Y15R); assay type: binding; conditions: Table 5, Alexa Fluor 680 C2-maleimide
T11 construct: 6xHis (C); made in house
T11 sequence (P02693 with tags, fused parts or gaps with the stated changes): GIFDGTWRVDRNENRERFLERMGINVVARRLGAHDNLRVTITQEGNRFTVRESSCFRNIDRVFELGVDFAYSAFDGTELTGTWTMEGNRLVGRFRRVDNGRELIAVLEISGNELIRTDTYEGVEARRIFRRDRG
Description: as §1

[13] = Table 5, Alexa Fluor 680 C2-maleimide
[14] = Table 5, Alexa Fluor 750 C5-maleimide

Sequence of rI-FABP (SEQ ID NO: 3) variant L2P14 F7, 18G 31M 72A (P02693 with tags, fused parts or gaps M19G/G32M/L73A): as the sequence (P02693 with tags, fused parts or gaps Y15T/M19L/L73A/A74M/Y118C) above, with T14Y, L18G, G31M, M73A, C117Y counted along it

## C=CC1=C(C)/C(=C/c2[nH]c(Cc3[nH]c(/C=C4\NC(=O)C(C)=C4C=C)c(C)c3CCC(=O)O)c(CCC(=O)O)c2C)NC1=O [bilirubin]
[1]
  Kd: 69 nM
[2]
  Kd: 350 nM
[3]
  Kd: 1430 nM
[4]
  Kd: 242 nM
[5]
  Kd: 71 nM
[6]
  Kd: 89 nM
[7]
  Kd: 72 nM
[8]
  Kd: 197 nM
[9]; [13]
  Kd: 70 nM
[9]; [14]
  Kd: 154 nM
[10]
  Kd: 118 nM
[11]; [13]
  Kd: 250 nM
[11]; [14]
  Kd: 120 nM
[12]
  Kd: 160 nM

Source: patent publication US10295551B2, “Development and use of fluorescent probes of unbound bilirubin” (Alan Marc Kleinfeld, priority 2011, dated 2019)
